How the values were obtained:
[1] = tested on: washed platelets from WT or 12-LOX−/− mice; test: Platelet aggregation, washed murine platelets (lumi-aggregometer); type: cell-based, mouse; conditions: 10 min
Protocol: The 12-LOX null C57BL/6 (12-LOX^−/−) mice were generated using homozygous breeding pairs and wild-type (WT) C57BL/6 ([…]) mice were purchased (Jackson Laboratory). […] Mouse blood was diluted with equal volumes of Tyrode's buffer (10 mM HEPES, 11.9 mM sodium bicarbonate, 127.2 mM sodium chloride, 5 mM potassium chloride, 0.4 mM sodium phosphate monobasic, 1 mM magnesium chloride, and 5 mM D-glucose) and centrifuged at 200×g. Platelet-rich-plasma (PRP) was transferred to a tube containing 10× acid citrate dextrose solution (ACD) (2.5% sodium citrate, 1.5% citric acid, and 2% D-glucose) and apyrase (0.02 U/mL), and centrifuged at 2000×g. Platelet count was adjusted to 3×10^8 platelets/mL with Tyrode's buffer for all studies.
A lumi-aggregometer (Chrono-log model 700D) was used to measure platelet aggregation under stirring conditions (1100 rpm) at 37° C. Prior to agonist stimulation platelets were incubated with a preselected PUFA or oxylipin for 10 minutes.

adenylyl cyclase = test: LC/MS quantification of cAMP in washed human platelets; type: cell-based; conditions: 25 μM, 1 min; platelets pre-treated with 10 μM IBMX; vs DMSO
Protocol: Washed human platelets were treated with the specific ligand or vehicle control for 1 min at room temperature, and quenched with an equal volume of ice-cold 2× platelet lysis buffer containing protease and phosphatase inhibitors. Lysed platelet samples were centrifuged at 14,000 g for 7 min at 4° C. to pellet cytoskeleton and the supernatant was stored in −80° C.
To prepare the sample for LC/MS injection, 200 μL of the supernatant was spiked with 400 pg of adenosine-3′,5′-cyclic-13C5 monophosphate (^13C5-cAMP) (Toronto Research Chemicals, Inc.), an internal standard, and 600 μL of LC/MS grade acetonitrile (Fisher Scientific). The sample was briefly vortexed and centrifuged at 14,000 rpm for 10 min at 4° C. The supernatants were then air dried in a SpeedVac and reconstituted in 200 μL of LC/MS grade water and centrifuged at 10,000 rpm for 5 min at 4° C. and used for LC/MS injection.
The separation and detection of cAMP was performed on a Waters ACQUITY UPLC system equipped with a Xevo Triple Quadrupole Mass Spectrometer (TQ-S MS/MS). […]
The mass spectrometer was operated with an ESI source in positive mode. […] Cyclic AMP (cAMP) was quantitated using ^13C5-cAMP as the internal standard. […]

VASP (serine 157) = test: VASP phosphorylation in human platelets; type: cell-based; conditions: 1 min
Protocol: Washed platelets were treated with PUFA or PUFA metabolite (12(S)-HETrE or compound IIc) for one minute, then directly lysed in 5× Laemmeli sample buffer (1.5 M Tris-HCl, pH 6.8, glycerol, 5% β-mercaptoethanol, 10% sodium dodecyl sulfate (SDS), and 1% bromophenol blue). The samples were boiled for five minutes and then run on a 10% SDS-PAGE gel. The levels of total and phospho-VASP (serine 157) were quantified by Western Blot using an Odyssey imaging system (LI-CoR).

Gαs = test: [35S]GTPγS binding to immunoprecipitated Gαs, platelet membranes; type: biochemical; conditions: human platelet membranes, vs DMSO
Protocol: PRP was isolated from whole blood as described above and then incubated with 1 mM aspirin for 1 hour at 37° C. Platelets were pelleted at 2000 g for 10 min in the presence of 10×ACD and apyrase. The pelleted platelets were washed with Tyrode's and centrifuged at 2000×g with 10×ACD for 10 min at room temperature. The platelets were flash frozen with liquid nitrogen and then resuspended in cold detergent-free TME buffer (50 mM Tris-HCl, pH 7.5, 20 mM MgCl2, 2 mM EDTA, and 100 mM NaCl) with 1 μM GDP and protease and phosphatase inhibitors to lyse the platelets. The lysed platelets were centrifuged at 1500 g at 4° C. for 5 min. The supernatant was collected and centrifuged at 100,000×g for 30 min at 4° C. The pelleted membranes were resuspended in TME buffer with 1 μM GDP and stored at −80° C. prior to use. Fatty acid metabolites, agonists, or DMSO and [^35S]GTPγS (10 nM) were added to platelet membranes (60 μg/reaction) on ice, and the tubes were immediately transferred to a 30° C. water bath shaker for 20 min. The reaction was terminated by the addition of ice-cold IP buffer (50 mM Tris-HCl, pH 7.5, 20 mM MgCl2, 150 mM NaCl, 0.5% Nonidet P-40, 0.33% aprotinin, 0.1 mM GDP, and 0.1 mM GTP). The samples were pre-cleared with Protein A agarose beads and normal rabbit IgG for 30 min on a nutator at 4° C. and then aliquoted equally into two tubes containing either normal rabbit IgG or a Gs antibody that had been conjugated to Protein A agarose beads. The samples were incubated on a nutator for 1 hr at 4° C. and washed 4 times with IP buffer and 1 time in TME buffer. The samples were boiled in 0.5% SDS for 30 sec, and the supernatants were collected following brief centrifugation. The supernatants were analyzed in 8 mL of scintillation fluid. The background counts for the normal rabbit IgG (50-200 cpm) for each sample were subtracted from the anti-Gs immunoprecipitated samples prior to analyzing the data.

Rap1 = Rap1 activation in washed platelets (Rap1-GTP pull-down, Western blot); type: cell-based, mouse; conditions: 10 μM DGLA, PAR4-AP 50, 100, 200 μM
Protocol: Following 1 minute of stimulation platelets were lysed with 2× platelet lysis buffer (100 mM Tris HCl, pH 7.4, 150 mM NaCl, 2% IGEPAL, 1% sodium deoxycholate, and 0.05% SDS) containing protease and phosphatase inhibitors. The cytoskeleton was pelleted by centrifugation at 14000×g for 7 minutes at 4° C. Active Rap1 was selectively captured from the supernatant by incubating GST-tagged Rap1 binding domain of RalGDS conjugated to glutathione sepharose beads for one hour on a nutator at 4° C. The beads were then washed 5 times with IP buffer and resuspended in 2× Laemmeli reducing buffer (62.5 mM Tris-HCl, pH 6.8, 2% SDS, 25% glycerol, 0.01% bromophenol blue, 5% β-mercaptoethanol). The samples were boiled for 10 minutes and then loaded onto a 10% SDS-polyacrylamide gel electrophoresis (PAGE) gel. Western blots were performed using a Rap1 antibody and quantified with a LI-COR imager.

[2] = tested on: thrombus formation (platelet and fibrin) in cremaster arterioles; test: Laser-induced cremaster arteriole thrombosis model; type: in vivo, mouse; conditions: vs vehicle
Protocol: Wild type (WT) or 12-LOX^−/− mice (12 weeks of age) were anesthetized by intraperitoneal injection of ketamine/xylazine (100 mg/kg) prior to the exposure of the cremaster muscle arterioles under a dissecting microscope with constant perfusion of preheated bicarbonate-buffered saline (Reheman et al., J Thromb Haemost 3:875-883, 2005; Reheman et al., Blood 113:1809-1817, 2009; Wang et al., J Clin Invest 124:4281-4293, 2014). Anti-platelet (DyLight 488 anti-GPIb, 1 μg/g) and anti-fibrin (Alexa Fluor 647, 0.3 μg/g) antibodies were administered via jugular vein catheter prior to intravital microscopy. DGLA (50 mg/kg) or DMSO (vehicle control) were dissolved in a formulation of 5% DMSO and 45% PEG300 in sterile 1×PBS and then intravenously injected into mice 10 minutes prior to induction of thrombosis. 12(S)-HETrE (6 mg/kg) or equal volume of DMSO (vehicle control) was also intravenously injected into mice 10 minutes prior to induction of thrombosis. Multiple independent thrombi were induced in the arterioles (30-50 μm diameter) in each mouse by a laser ablation system (Ablate! photoablation system; Intelligent Imaging Innovations, Denver, Colo., USA). Images of thrombus formation were acquired in real-time under 63× water-immersion objective with a Zeiss Axio Examiner Z1 fluorescent microscope equipped with solid laser launch system (LaserStack; Intelligent Imaging Innovations) and high-speed sCMOS camera. All captured images were analyzed on Slidebook (Intelligent Imaging Innovations Inc., Denver, Colo., USA).

platelets = conditions: cited from earlier work
washed human platelets = test: Human platelet aggregation after pre-treatment with adenylyl cyclase inhibitor SQ 22536; type: cell-based; conditions: platelets pre-treated with SQ 22536 (25 μM, 20 min); iloprost 0.2 to 0.4 nM, 1 min; EC80 PAR4-AP
Protocol: Blood from healthy donors was collected into vacutainers containing buffered sodium citrate, and platelets were isolated by serial centrifugation as described above for mouse platelets. The platelets were resuspended in Tyrode's buffer at 3×10^8 platelets/mL, unless otherwise specified.
A lumi-aggregometer (Chrono-log model 700D) was used to measure platelet aggregation under stirring conditions (1100 rpm) at 37° C. […]

Tail bleeding assay = type: in vivo, mouse; conditions: heparin-treated mice; data not shown
Protocol: Mice were anesthetized with ketamine/xyzaline and placed on a heating pad in prone position, the tip of the tail (5 mm) was excised with a sterile scalpel, and the tails were immediately immersed into isotonic saline solution (0.9%) warmed to 37° C. Bleeding time was assessed until cessation of blood flow from the tail for 1 minute.

[3] = 12-LOX−/− mouse platelets, 10 μM PUFA, EC80 PAR4-AP (200 μM) or collagen (2 or 5 μg/mL), vs vehicle
[4] = WT mouse platelets, 10 μM PUFA, EC80 PAR4-AP (100 μM) or collagen (5 μg/mL), vs DMSO
[5] = 12-LOX−/− mouse platelets, 25 μM 12-LOX oxylipin, EC80 PAR4-AP (200 μM) or collagen (2 or 5 μg/mL), vs vehicle
[6] = WT mouse platelets, 25 μM 12-LOX oxylipin, EC80 PAR4-AP (100 μM) or collagen (5 μg/mL), vs vehicle
[7] = WT mice, 50 mg/kg i.v. 10 min before laser injury

CCCCC/C=C\C/C=C\C/C=C\C/C=C\CCCC(=O)O [AA]
platelet aggregation [1, 3]: no inhibitory effect
platelet aggregation [1, 4]: no inhibitory effect

CC/C=C\C/C=C\CC(O)/C=C/C=C\C/C=C\CCCC(=O)O (centres unmarked) [Compound 12-HEPE, 12-hydroxy-5Z, 8Z, 10E, 14Z, 17Z-eicosapentaenoic acid]
platelet aggregation [1, 5]: did not inhibit collagen- or PAR4-AP-induced aggregation
platelet aggregation [1, 6]: did not inhibit collagen- or PAR4-AP-induced aggregation

CCCCC/C=C\CC(O)/C=C/C=C\C/C=C\CCCC(=O)O (centres unmarked) [Compound 12-HETE, 12-hydroxy-5Z,8Z,10E,14Z-eicosatetraenoic]
platelet aggregation [1, 5]: no decrease in collagen- or PAR4-AP-mediated platelet aggregation
platelet aggregation [1, 6]: no decrease in collagen- or PAR4-AP-mediated platelet aggregation

CCCCC/C=C\CC(/C=C/C=C\CCCCCCC(=O)O)OO (centres unmarked) [Compound 12-HpETrE]
level of intracellular cAMP (adenylyl cyclase): significant increase in the level of intracellular cAMP
VASP phosphorylation (S157) (VASP (serine 157); 25 μM, vs DMSO): enhanced VASP phosphorylation
[35S]GTPγS binding to immunoprecipitated Gαs (Gαs; 25 μM): significant increase in [^35S]GTPγS binding

CCCCC/C=C\C/C=C\C/C=C\CCCCCSc1n[nH]c(=O)[nH]1 [Compound IIc, 5-(((6Z,9Z,12Z)-octadeca-6,9,12-trien-1-yl)thio)-2,4-dihydro-3H-1,2,4-triazol-3-one]
VASP phosphorylation (S157) (VASP (serine 157); compound IIc, concentrations not given): dose-dependent phosphorylation of VASP

CCCCC/C=C\C/C=C\C/C=C\CCCCCCC(=O)O [DGLA, Dihomo-γ-linolenic acid]
platelet aggregation [1, 3]: failed to inhibit platelet aggregation
platelet aggregation [1, 4]: significant inhibition of aggregation
Rap1 activation (Rap1-GTP) (Rap1; 12-LOX−/− mouse platelets): unable to inhibit Rap1 activation
Rap1 activation (Rap1-GTP) (Rap1; WT mouse platelets): inhibited Rap1 activation at all concentrations of PAR4-AP tested
fibrin accumulation in thrombi ([2]; 12-LOX−/− mice, 50 mg/kg i.v.): did not differ
platelet accumulation in thrombi ([2]; 12-LOX−/− mice, 50 mg/kg i.v.): did not differ
fibrin accumulation at the site of injury [2, 7]: but not fibrin accumulation
platelet accumulation at the site of injury [2, 7]: significant reduction in platelet
VASP phosphorylation (S157) (VASP (serine 157); DGLA 10 μM, vs DMSO): enhanced VASP phosphorylation
platelet aggregation ex vivo (platelets; literature (Farrow and Willis 1975; Kernoff 1977; Willis 1974)): inhibit platelet aggregation ex vivo
ex vivo aggregation of platelets after dosing (platelets; platelets from humans, baboons, rabbits and rats that received daily oral doses): significant reduction in ex vivo aggregation

CCCCC/C=C\C/C=C\CCCCCCCC(=O)O [LA, linoleic acid]
platelet aggregation [1, 3]: no inhibitory effect
platelet aggregation [1, 4]: no inhibitory effect

CC#CCC(C)[C@H](O)/C=C/[C@@H]1[C@H]2C/C(=C/CCCC(=O)O)C[C@H]2C[C@H]1O (some centres unmarked) [iloprost]
PAR4-AP-mediated platelet aggregation (washed human platelets): unable to inhibit PAR4-AP-mediated platelet aggregation
[35S]GTPγS binding to immunoprecipitated Gαs (Gαs; iloprost 10 μM): significant increase in [^35S]GTPγS binding

heparin
bleeding time (Tail bleeding assay): severe bleeding diathesis

Reference: patent US11111222B2, “Hydroxyeicosatrienoic acid compounds and their use as therapeutic agents” (THE REGENTS OF THE UNIVERSITY OF MICHIGAN, priority 2016, dated 2021)
